Measurements from ChEMBL document CHEMBL1201862, “PubChem BioAssay data set” (2004).
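How tested: cells in 96-well plates exposed to compound for 48 hours at five concentrations. GI50 = concentration required for 50% inhibition of growth.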 Calls of active or inactive are those of the source. No stated cut-off is given here; in the data, active = GI50 up to about 1.1 µM and inactive = higher.

Columns and labels:
Assay in all cases: NCI-60 cell line screen, 48 h
UACC-257 = tested on: UACC-257
COLO 205 = tested on: COLO 205
HCT-15 = tested on: HCT-15
SK-MEL-28 = tested on: SK-MEL-28
HT-29 = tested on: HT-29
SNB-19 = tested on: SNB-19
SK-MEL-2 = tested on: SK-MEL-2
NCI-H226 = tested on: NCI-H226
Hs-578T = tested on: Hs-578T
SK-OV-3 = tested on: SK-OV-3
SNB-75 = tested on: SNB-75
M14 = tested on: M14
OVCAR-3 = tested on: OVCAR-3
HCT-116 = tested on: HCT-116
CCRF-CEM = tested on: CCRF-CEM
IGROV-1 = tested on: IGROV-1
LOX IMVI = tested on: LOX IMVI
PC-3 = tested on: PC-3
MOLT-4 = tested on: MOLT-4
MDA-N = tested on: MDA-N

SMILES | GI50 (UACC-257) | GI50 (COLO 205) | GI50 (HCT-15) [µM] | GI50 (SK-MEL-28) | GI50 (HT-29) | GI50 (SNB-19) | GI50 (SK-MEL-2) | GI50 (NCI-H226) | GI50 (Hs-578T) | GI50 (SK-OV-3) | GI50 (SNB-75) | GI50 (M14) | GI50 (OVCAR-3) | GI50 (HCT-116) | GI50 (CCRF-CEM) | GI50 (IGROV-1) | GI50 (LOX IMVI) | GI50 (PC-3) | GI50 (MOLT-4) | GI50 (MDA-N)
CCSc1nc(=S)n(-c2ccccc2)c(C)c1C(C)=O | > 100 µM (inactive) | > 100 µM (inactive) | > 100 | > 100 µM (inactive) | > 100 µM (inactive) | > 94.6 µM (inactive) | > 100 µM (inactive) | > 100 µM (inactive) | > 100 µM (inactive) | > 100 µM (inactive) | > 100 µM (inactive) | > 100 µM (inactive) | > 100 µM (inactive) | > 100 µM (inactive) | > 100 µM (inactive) | > 100 µM (inactive) | > 100 µM (inactive) | > 100 µM (inactive) | > 100 µM (inactive) | 
Cc1ccc(CCCC(=O)O)cc1C | > 100 µM (inactive) |  | > 100 | > 100 µM (inactive) | > 100 µM (inactive) | > 100 µM (inactive) | > 100 µM (inactive) | > 100 µM (inactive) |  |  | 39.1 µM (inactive) | > 100 µM (inactive) | > 100 µM (inactive) | > 100 µM (inactive) | > 100 µM (inactive) | > 100 µM (inactive) | > 100 µM (inactive) | > 100 µM (inactive) | > 100 µM (inactive) | > 100 µM (inactive)
O=c1c2cccnc2[s+]([O-])n1Cc1ccccc1 (centres undefined) | > 100 µM (inactive) | > 100 µM (inactive) | > 100 | > 100 µM (inactive) | > 100 µM (inactive) | > 100 µM (inactive) |  | > 100 µM (inactive) | > 100 µM (inactive) | > 100 µM (inactive) | > 100 µM (inactive) | > 100 µM (inactive) |  | > 100 µM (inactive) | 3.01 µM (inactive) | > 100 µM (inactive) |  |  | > 100 µM (inactive) | > 100 µM (inactive)
CCOC(=O)c1c(NCc2ccccc2)n(-c2ccccc2)c(=S)n(-c2ccccc2)c1=O | > 100 µM (inactive) | 76.2 µM (inactive) | 63.1 | > 100 µM (inactive) | 40.4 µM (inactive) | > 100 µM (inactive) | > 100 µM (inactive) | > 100 µM (inactive) | 19.5 µM (inactive) |  | 33.7 µM (inactive) | > 100 µM (inactive) | > 100 µM (inactive) |  | 29.4 µM (inactive) | > 100 µM (inactive) | > 100 µM (inactive) |  | 34.5 µM (inactive) | > 100 µM (inactive)
COc1cc([C@@H]2c3cc4c(cc3[C@@H](c3c(O)cc(O)c5c3O[C@H](c3ccc(O)c(O)c3)[C@@H](O)C5)[C@H]3COC(=O)[C@H]23)OCO4)cc(OC)c1OC | 1.95 µM (inactive) | 22.7 µM (inactive) | 39.2 | 48.4 µM (inactive) | 25.5 µM (inactive) | 38.4 µM (inactive) | 1.88 µM (inactive) |  | 34 µM (inactive) | 1.83 µM (inactive) |  | 25.1 µM (inactive) | 1.64 µM (inactive) | 21.1 µM (inactive) | 50.7 µM (inactive) | 44.6 µM (inactive) | 25.6 µM (inactive) | 1.75 µM (inactive) | 30.5 µM (inactive) | 
COc1cc(C2c3c(ccc4ccccc34)C(=O)C3CCC(=O)N32)cc(OC)c1O (centres undefined) | > 25 µM (inactive) | > 25 µM (inactive) | > 25 | > 25 µM (inactive) | > 25 µM (inactive) | > 25 µM (inactive) | > 25 µM (inactive) | > 25 µM (inactive) |  | > 25 µM (inactive) | > 25 µM (inactive) | > 25 µM (inactive) | > 25 µM (inactive) | > 25 µM (inactive) | 19.9 µM (inactive) | > 25 µM (inactive) |  | > 25 µM (inactive) | > 25 µM (inactive) | > 25 µM (inactive)
O=C(O)CN1CCN2CCOCCN(CC1)CCN(CC(=O)O)CC2 | > 100 µM (inactive) | > 100 µM (inactive) | > 100 | > 100 µM (inactive) | > 100 µM (inactive) | > 100 µM (inactive) | > 100 µM (inactive) | > 100 µM (inactive) | > 100 µM (inactive) | > 100 µM (inactive) | > 100 µM (inactive) | > 100 µM (inactive) | > 100 µM (inactive) | > 100 µM (inactive) | > 100 µM (inactive) | > 100 µM (inactive) | > 100 µM (inactive) | > 100 µM (inactive) | > 100 µM (inactive) | 
CCOC(=O)C1=C(C)OC2(O)C=CC(O)=C3C(=O)N(c4ccccc4)C(=O)C312 (centres undefined) | 39.1 µM (inactive) | 43.1 µM (inactive) | 30.6 | 22.5 µM (inactive) | 29.3 µM (inactive) | 22.8 µM (inactive) | 30.5 µM (inactive) | 34.2 µM (inactive) | 32.9 µM (inactive) | 90.8 µM (inactive) | 41.8 µM (inactive) | 50.5 µM (inactive) | 61.9 µM (inactive) | 54.8 µM (inactive) |  | 29 µM (inactive) | 21.8 µM (inactive) | 35.3 µM (inactive) | 29.7 µM (inactive) | 
O=C(C(=C(I)I)c1ccccc1)c1ccccc1 | 37.4 µM (inactive) | 27.5 µM (inactive) | 29.9 | 30.7 µM (inactive) | 33.6 µM (inactive) | 29.9 µM (inactive) | 16.1 µM (inactive) |  | 16.1 µM (inactive) | 59.6 µM (inactive) |  | 25 µM (inactive) | 20.9 µM (inactive) | 17.1 µM (inactive) | 1.08 µM (active) | 8.63 µM (inactive) |  | 28.4 µM (inactive) | 19.8 µM (inactive) | 19.1 µM (inactive)
S=C(NN=C1NCCCN1)Nc1ccccc1 | > 100 µM (inactive) | > 100 µM (inactive) | > 100 | > 100 µM (inactive) | > 100 µM (inactive) | > 100 µM (inactive) | > 100 µM (inactive) | > 100 µM (inactive) | > 100 µM (inactive) | > 100 µM (inactive) | > 100 µM (inactive) |  | > 100 µM (inactive) | > 100 µM (inactive) | 43.3 µM (inactive) | > 100 µM (inactive) | > 100 µM (inactive) | > 100 µM (inactive) | 48.3 µM (inactive) | 
Cn1/c(=N\c2ccc(Cl)cc2)sc2ccccc21 | 35.7 µM (inactive) | 22.3 µM (inactive) | 8.15 | > 100 µM (inactive) | 32.7 µM (inactive) | > 100 µM (inactive) | 39.4 µM (inactive) | 46 µM (inactive) | 62.4 µM (inactive) | > 100 µM (inactive) | 45.8 µM (inactive) |  |  | 37 µM (inactive) | > 100 µM (inactive) | 55.3 µM (inactive) | 34.7 µM (inactive) | 37 µM (inactive) | 48.2 µM (inactive) | 
Cc1cccc(Nc2cn(CCOc3ccccc3)c(=O)n(CCOc3ccccc3)c2=O)c1 | > 100 µM (inactive) | > 100 µM (inactive) | > 100 | > 100 µM (inactive) |  | > 100 µM (inactive) |  |  | > 100 µM (inactive) |  |  | > 100 µM (inactive) | > 100 µM (inactive) | > 100 µM (inactive) | > 100 µM (inactive) | 23.3 µM (inactive) | > 100 µM (inactive) | > 100 µM (inactive) | > 100 µM (inactive) | > 100 µM (inactive)
CC(C)(Oc1ccc(Cl)cc1)C(=O)N(C(=O)N1CCC(c2ccccc2)CC1)c1ccccc1 | 11 µM (inactive) | 10 µM (inactive) | 9.89 | > 100 µM (inactive) | 22.5 µM (inactive) | > 100 µM (inactive) | > 59.7 µM (inactive) | > 61 µM (inactive) | > 73.8 µM (inactive) | 99.8 µM (inactive) | > 26.1 µM (inactive) | 65 µM (inactive) | > 73.5 µM (inactive) | 4.78 µM (inactive) | 3.03 µM (inactive) | > 53.2 µM (inactive) | 22.9 µM (inactive) | 5.51 µM (inactive) | 7.05 µM (inactive) | 
O=C(O)C(C1NCCS1)N1Cc2ccccc2C1 (centres undefined) | > 100 µM (inactive) | > 100 µM (inactive) | > 100 | > 100 µM (inactive) | > 100 µM (inactive) | > 100 µM (inactive) | > 100 µM (inactive) | > 100 µM (inactive) |  | > 100 µM (inactive) | > 100 µM (inactive) | > 100 µM (inactive) | > 100 µM (inactive) | > 100 µM (inactive) | > 100 µM (inactive) | > 100 µM (inactive) | > 100 µM (inactive) | > 100 µM (inactive) | > 100 µM (inactive) | > 100 µM (inactive)
O=C1C(CN2CCCCC2)CCCC1CN1CCCCC1 (centres undefined) | 17.2 µM (inactive) |  | 18.3 | 17.4 µM (inactive) | 20.1 µM (inactive) |  |  | > 52.2 µM (inactive) | 23.3 µM (inactive) | > 100 µM (inactive) |  | 20.7 µM (inactive) | 18.6 µM (inactive) | 15.4 µM (inactive) |  | > 56.2 µM (inactive) | 16.9 µM (inactive) | 16.1 µM (inactive) |  | 16 µM (inactive)
C=C1CC/C=C(\C)C(=O)C[C@@H]2[C@@H]1CC2(C)C [BUDDLEDIN C] | 4.66 µM (inactive) | 1.8 µM (inactive) | 0.689 | 2.75 µM (inactive) | 2.44 µM (inactive) | 12.6 µM (inactive) | 17.5 µM (inactive) | 14.8 µM (inactive) |  | 20.3 µM (inactive) | 10.6 µM (inactive) | 3.69 µM (inactive) | 6.34 µM (inactive) | 1.17 µM (inactive) | 0.0944 µM (active) | 3.26 µM (inactive) | 1.17 µM (inactive) | 9.14 µM (inactive) | 0.184 µM (active) | 1.2 µM (inactive)
